Data set [1] can be described thus: Rat pharmacokinetic (PK) studies.
Data set [2] has as its target T1, ALK (Homo sapiens, UniProt Q9UM73). Description: ALK autophosphorylation enzyme assay. In kind it is biochemical.
Target sequence in this assay (Q9UM73 19-1620): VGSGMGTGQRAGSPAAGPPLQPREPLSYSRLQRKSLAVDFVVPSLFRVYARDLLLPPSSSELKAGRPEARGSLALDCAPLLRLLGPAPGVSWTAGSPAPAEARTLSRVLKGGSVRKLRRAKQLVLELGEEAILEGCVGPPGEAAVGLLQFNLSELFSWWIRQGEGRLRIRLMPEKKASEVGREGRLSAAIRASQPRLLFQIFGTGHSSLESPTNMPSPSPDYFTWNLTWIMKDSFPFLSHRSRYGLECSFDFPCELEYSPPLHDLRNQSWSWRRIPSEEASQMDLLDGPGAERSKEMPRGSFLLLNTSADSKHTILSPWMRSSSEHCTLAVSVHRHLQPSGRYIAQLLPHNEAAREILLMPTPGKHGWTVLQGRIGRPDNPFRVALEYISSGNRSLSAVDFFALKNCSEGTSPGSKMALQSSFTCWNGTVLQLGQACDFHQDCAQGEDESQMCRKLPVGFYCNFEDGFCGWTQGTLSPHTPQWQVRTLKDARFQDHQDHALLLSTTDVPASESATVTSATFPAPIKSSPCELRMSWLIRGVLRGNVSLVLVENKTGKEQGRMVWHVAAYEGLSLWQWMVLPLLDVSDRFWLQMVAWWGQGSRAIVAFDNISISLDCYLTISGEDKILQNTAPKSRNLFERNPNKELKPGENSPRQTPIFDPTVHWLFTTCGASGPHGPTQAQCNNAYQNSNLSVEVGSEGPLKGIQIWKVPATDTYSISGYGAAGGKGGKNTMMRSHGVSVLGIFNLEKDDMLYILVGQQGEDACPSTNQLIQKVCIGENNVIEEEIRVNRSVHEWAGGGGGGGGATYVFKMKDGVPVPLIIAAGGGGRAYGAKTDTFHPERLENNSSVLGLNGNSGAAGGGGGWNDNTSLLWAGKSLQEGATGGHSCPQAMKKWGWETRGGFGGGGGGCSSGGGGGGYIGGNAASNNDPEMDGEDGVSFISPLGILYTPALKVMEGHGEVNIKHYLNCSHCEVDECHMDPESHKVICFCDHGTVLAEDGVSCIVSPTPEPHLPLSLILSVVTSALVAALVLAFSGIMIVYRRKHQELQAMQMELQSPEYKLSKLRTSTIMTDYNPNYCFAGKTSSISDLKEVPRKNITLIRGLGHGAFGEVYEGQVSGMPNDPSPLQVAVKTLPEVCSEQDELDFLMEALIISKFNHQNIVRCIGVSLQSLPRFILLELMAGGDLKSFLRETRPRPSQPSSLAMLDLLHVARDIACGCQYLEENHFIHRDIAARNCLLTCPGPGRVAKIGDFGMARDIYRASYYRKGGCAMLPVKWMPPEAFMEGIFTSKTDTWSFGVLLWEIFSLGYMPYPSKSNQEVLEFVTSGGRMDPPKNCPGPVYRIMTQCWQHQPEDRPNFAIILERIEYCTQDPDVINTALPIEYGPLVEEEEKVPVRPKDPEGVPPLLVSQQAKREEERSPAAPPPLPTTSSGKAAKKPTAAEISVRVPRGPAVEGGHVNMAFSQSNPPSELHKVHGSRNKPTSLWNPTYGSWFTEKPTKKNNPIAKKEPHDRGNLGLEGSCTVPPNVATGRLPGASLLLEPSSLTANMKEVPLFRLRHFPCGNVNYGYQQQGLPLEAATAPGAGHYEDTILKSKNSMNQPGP
The target of data set [3] is T1, ALK. Description: ALK autophosphorylation cellular assay. In kind it is cell-based. The following applies: read-out: ALK Cell IC50.
Target sequence in this assay (Q9UM73 with tags, fused parts or gaps): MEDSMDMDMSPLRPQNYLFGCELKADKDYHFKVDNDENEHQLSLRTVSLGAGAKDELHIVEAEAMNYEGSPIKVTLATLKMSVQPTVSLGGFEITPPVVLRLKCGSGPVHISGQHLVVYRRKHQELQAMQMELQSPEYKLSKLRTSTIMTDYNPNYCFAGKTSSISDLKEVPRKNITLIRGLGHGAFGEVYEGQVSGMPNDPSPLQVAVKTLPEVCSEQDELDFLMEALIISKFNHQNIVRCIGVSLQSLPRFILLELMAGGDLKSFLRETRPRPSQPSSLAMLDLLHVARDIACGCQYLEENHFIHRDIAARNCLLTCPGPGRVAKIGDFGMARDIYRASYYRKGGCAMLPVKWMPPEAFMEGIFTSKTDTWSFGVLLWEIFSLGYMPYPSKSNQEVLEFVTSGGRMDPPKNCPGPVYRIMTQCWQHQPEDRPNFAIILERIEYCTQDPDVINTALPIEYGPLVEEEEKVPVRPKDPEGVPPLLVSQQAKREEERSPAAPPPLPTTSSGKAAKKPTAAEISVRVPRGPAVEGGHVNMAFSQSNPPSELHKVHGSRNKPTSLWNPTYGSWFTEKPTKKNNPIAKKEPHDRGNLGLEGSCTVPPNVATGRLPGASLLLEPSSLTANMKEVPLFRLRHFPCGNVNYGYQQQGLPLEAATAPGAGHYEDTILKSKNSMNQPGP
Data set [4] is described as follows: PK/PD study: compound levels in plasma and tumor lysates (LC/MS-MS). In kind it is in vivo. The following applies: Scid mice, single p.o. 30 mg/kg, 6 h and 16 h post dose. From the text:
Exponentially growing cells were implanted subcutaneously to the left flank of each mouse. The mice were monitored and when the tumor xenograft volumes reached approximately 300 to 500 mm3, mice received a single oral administration of either vehicle PEG-400 or the compound of interest (e.g., Examples 14, 16, 16a, and/or 16b) formulated in vehicle. At indicated time points postdosing, the mice were sacrificed, the blood was collected and centrifuged, and the plasma was collected. The tumors were excised and disrupted with a hand-held tissue blender in completed FRAK lysis buffer without Triton X-100. After brief sonication, the lysates were cleared by centrifugation, mixed with sample buffer, and subjected to SDS-PAGE for ALK immunoblotting as described above. The individual bands of phospho- and total NPM-ALK were scanned and quantified with the Gel Pro Analyzer software (Media Cybernetics, Inc.). The relative NPM-ALK tyrosine phosphorylation (phospho-NPMALK/NPM-ALK ratio) of each sample at indicated time points was then calculated, with the average value of vehicle-treated sample(s) as 100. The compound levels in plasma and tumor lysates were measured by liquid chromatography/tandem mass spectrometry (LC/MS-MS).

Data set [5] concerns Sup-M2 ALCL xenografts. In kind it is in vivo. The following applies: Scid mice, p.o., 10 days; for anti-tumor efficacy (tumor regression): Sup-M2 xenografts.
Experimental: The length (L) and width (W) of each tumor was measured with a Vernier caliper and the mouse body weight was determined every 2 to 3 days. […] Statistical analyses of tumor volumes and mouse body weight were carried out using the Mann-Whitney rank sum test. Plasma and tumor samples were obtained at 2 hours post-final dose, and the compound levels in plasma and tumor lysates were measured by LC/MS-MS.
Where [6] appears, read: Sprague-Dawley, rat, in vivo, iv, 1 mg/kg.
Setting [7] is: Sprague-Dawley, rat, in vivo, po, 5 mg/kg.
Where [8] appears, read: Sprague-Dawley rat, i.v., 1 mg/kg.
Where [9] appears, read: Sprague-Dawley rat, p.o., 5 mg/kg.

The term AUC(0-inf) denotes the area under the concentration-time curve extrapolated to infinity. The term Vd denotes a proportionality between amount in the body and measured concentration, not a real space. Usually clearance stands for the rate of elimination divided by the concentration. A higher clearance goes with efficient removal. As a reminder, the half-life is the time needed for the level to fall by half in the phase considered. A lower half-life goes with rapid decline. In general, Cmax refers to the peak of the concentration-time curve. Usually Tmax stands for the time at which the peak concentration occurs. As usually defined, the bioavailability is the share of a dose that reaches the circulation, judged against a reference dose that is usually intravenous. A high value points to much systemic uptake. For orientation: IC50 means the concentration that gives 50% inhibition.

Where two headings read alike, the source gives them in different places.

On to `COc1cc([C@@H]2CCN(CCO)C[C@H]2O)ccc1Nc1ncc2ccc(-c3ccccc3OC)n2n1` (racemic) [Example 16, (±)-3,4-trans-1-(2-Hydroxy-ethyl)-4-{3-methoxy-4-[7-(2-methoxy-phenyl)-pyrrolo[2,1-f][1,2,4]triazin-2-ylamino]-phenyl}-piperidin-3-ol], for which, in data set [1] (setting [6]), the AUC(0-inf) came out at 459 ± 72 ng·h/mL, the Vd is 10.3 ± 1.3 L/kg, the clearance was 39 ± 7 mL/min/kg and the half-life was 3.2 ± 0.6 h. Also, in data set [1] (setting [7]), the area under the curve AUC(0-inf) was determined as 708 ± 63 ng·h/mL, the peak level (Cmax) was 97 ± 10 ng/mL, the time to peak (Tmax) came out at 4 ± 1.2 h and the bioavailability was 31 ± 3%. In addition, in data set [1] (rat), the “rat PK properties (in words)” value is listed as “acceptable rat PK properties”.

Molecule `COc1cc(C2CCN(CCO)CC2(F)F)ccc1Nc1ncc2ccc(-c3ccccc3OC)n2n1` (racemic) [Example 9, (±)-2-(3,3-Difluoro-4-{3-methoxy-4-[7-(2-methoxy-phenyl)-pyrrolo[2,1-f][1,2,4]triazin-2-ylamino]-phenyl}-piperidin-1-yl)-ethanol] returned an IC50 in data set [2] of 28.2 nM.

In turn, `COc1cc([C@@H]2CCNC[C@@H]2O)ccc1Nc1ncc2ccc(-c3cccnc3OC)n2n1` (racemic) [Example 4, (±)-3,4-cis-4-{3-Methoxy-4-[7-(2-methoxy-pyridin-3-yl)-pyrrolo[2,1-f][1,2,4]triazin-2-ylamino]-phenyl}-piperidin-3-ol] had an IC50 in data set [2] of 14 nM.

With `COc1cc([C@@H]2CCN(CC(C)(C)O)C[C@H]2F)ccc1Nc1ncc2ccc(-c3cccnc3OC)n2n1` (racemic) [Example 10, (±)-1-(3,4-trans-3-Fluoro-4-{3-methoxy-4-[7-(2-methoxy-pyridin-3-yl)-pyrrolo[2,1-f][1,2,4]triazin-2-ylamino]-phenyl}-piperidin-1-yl)-2-methyl-propan-2-ol], in data set [2], half-maximal inhibition (IC50) required 25.2 nM.

`COc1cc(C2CCN(CCO)CC2)ccc1Nc1ncc2ccc(-c3ccccc3OC)n2n1` [Example 18, 2-(4-{3-Methoxy-4-[7-(2-methoxy-phenyl)-pyrrolo[2,1-f][1,2,4]triazin-2-ylamino]-phenyl}-piperidin-1-yl)-ethanol]: the IC50 in data set [2] is 3 nM; in data set [3], 150 nM.

In the case of `COc1cc([C@H]2CCN(CCO)C[C@@H]2O)ccc1Nc1ncc2ccc(-c3ccccc3OC)n2n1` (single isomer, unassigned) [Example 16b], in data set [4], the “plasma and tumor levels, higher than with Example 16a” value was 4-10 fold. Also, in data set [5] (30 mg/kg b.i.d.), the “tolerability (body weight loss, overt toxicity)” value is “well tolerated” and the “anti-tumor efficacy (tumor regression)” value is listed as “Complete tumor regressions”. Also, in data set [5] (55 mg/kg b.i.d.), the “tolerability (body weight loss, overt toxicity)” value is “well tolerated” and the “anti-tumor efficacy (tumor regression)” value is listed as “Complete tumor regressions”.

Turning to `COc1cc(C2CCN(CCO)CC2(F)F)ccc1Nc1ncc2ccc(-c3cccnc3OC)n2n1` (racemic) [Example 11, (±)-2-(3,3-Difluoro-4-{3-methoxy-4-[7-(2-methoxy-pyridin-3-yl)-pyrrolo[2,1-f][1,2,4]triazin-2-ylamino]-phenyl}-piperidin-1-yl)-ethanol], the IC50 in data set [2] is 34 nM.

With `COc1cc([C@@H]2CCN(CCO)C[C@@H]2O)ccc1Nc1ncc2ccc(-c3ccccc3OC)n2n1` (racemic) [Example 14, (±)-3,4-cis-1-(2-Hydroxy-ethyl)-4-{3-methoxy-4-[7-(2-methoxy-phenyl)-pyrrolo[2,1-f][1,2,4]triazin-2-ylamino]-phenyl}-piperidin-3-ol], in data set [1] (setting [8]), the “AUC0-∞” value was 371 ± 6 ng·h/mL, the CL is 46 ± 1 mL/min/kg, the Vd came out at 9.9 ± 2 L/kg and the t1/2 was 2.5 ± 0.6 h. In data set [1] (setting [9]), the “AUC0-∞” value is 479 ± 83 ng·h/mL, the Cmax is 85 ± 15 ng/mL and the F % is given as 26 ± 4%. The Tmax in data set [1] (setting [7]) turned out to be 6 h. Further, the “rat PK properties (in words)” value in data set [1] (rat) is listed as “acceptable rat PK properties”.

As for `COc1cc([C@@H]2CCNC[C@H]2F)ccc1Nc1ncc2ccc(-c3ccccc3OC)n2n1` (racemic) [Example 5, (±)-[4-(3,4-trans-3-Fluoro-piperidin-4-yl)-2-methoxy-phenyl]-[7-(2-methoxy-phenyl)-pyrrolo[2,1-f][1,2,4]triazin-2-yl]-amine], in data set [2], the IC50 came to 5.66 nM.

For the molecule `COc1cc(C2CCNCC2(F)F)ccc1Nc1ncc2ccc(-c3cccnc3OC)n2n1` (racemic) [Example 12, (±)-[4-(3,3-Difluoro-piperidin-4-yl)-2-methoxy-phenyl]-[7-(2-methoxy-pyridin-3-yl)-pyrrolo[2,1-f][1,2,4]triazin-2-yl]-amine], the half-maximal inhibitory concentration (IC50) came out at 13.7 nM in data set [2] and 200 nM in data set [3].

With `COCCN1CC[C@@H](c2ccc(Nc3ncc4ccc(-c5ccccc5OC)n4n3)c(OC)c2)[C@@H](O)C1` (racemic) [Example 1, (±)-3,4-cis-1-(2-Methoxy-ethyl)-4-{3-methoxy-4-[7-(2-methoxy-phenyl)-pyrrolo[2,1-f][1,2,4]triazin-2-ylamino]-phenyl}-piperidin-3-ol], the half-inhibitory concentration (IC50) is 3.33 nM in data set [2] and 50 nM in data set [3].

Values taken from patent US9440984B2, “Pyrrolotriazines as ALK inhibitors” (Cephalon, Inc., priority 2013, dated 2016).
